{"source": "patent US12685312B2", "about": "“Sulfonamide apyrase inhibitors” (Texas Crop Science, Inc., priority 2022, dated 2026)"}
{"test_system": "apyrase", "experiment": "Screen for apyrase inhibitors (Method 1, in vitro phosphate-release absorbance assay)", "format": "biochemical", "details": "inhibitor conc at 1 mM stock, 1 hr room temperature, absorbance 630 nm; rounded average of two assay results", "method_in_brief": "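Phosphate-release colorimetric assay (Windsor method) in 60 mM Hepes, 3 mM MgCl2, 3 mM CaCl2, 3 mM ATP, pH 6.5, with compound or DMSO control added. Released phosphate developed with ammonium molybdate and ascorbic acid/TCA, then stopped with citrate/acetic acid.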", "units": {"% Inhibition of Apyrase": "%"}}
{"smiles": "Cc1ccc(NC(=O)c2ccc(NS(=O)(=O)c3ccc(Br)cc3)cc2)cc1S(=O)(=O)N(C)C", "note": "[I-945, 4-((4-bromophenyl)sulfonamido)-N-(3-(N,N-dimethylsulfamoyl)-4-methylphenyl)benzamide]", "% Inhibition of Apyrase": 44}
{"smiles": "Cc1ccc(S(=O)(=O)N(C)c2ccc(C(=O)Nc3cccc(N4CCCC4=O)c3)cc2)cc1", "note": "[I-946, 4-((N,4-dimethylphenyl)sulfonamido)-N-(3-(2-oxopyrrolidin-1-yl)phenyl)benzamide]", "% Inhibition of Apyrase": 44}
{"smiles": "Cc1ccc(S(=O)(=O)N(C)c2ccc(C(=O)Nc3ccccc3OC(F)F)cc2)cc1", "note": "[I-947, N-(2-(difluoromethoxy)phenyl)-4-((N,4-dimethylphenyl)sulfonamido)benzamide]", "% Inhibition of Apyrase": 43}
{"smiles": "O=C(Nc1ccc(Br)cc1)c1ccc(NS(=O)(=O)c2ccc(F)c(F)c2)cc1", "note": "[I-948, N-(4-bromophenyl)-4-((3,4-difluorophenyl)sulfonamido)benzamide]", "% Inhibition of Apyrase": 43}
{"smiles": "Cc1cccc(NC(=O)c2ccc(NS(=O)(=O)c3ccc4c(c3)OCCO4)cc2)c1", "note": "[I-949, 4-((2,3-dihydrobenzo[b][1,4]dioxine)-6-sulfonamido)-N-(m-tolyl)benzamide]", "% Inhibition of Apyrase": 42}
{"smiles": "O=C(Nc1cccc(N2CCCC2=O)c1)c1ccc(NS(=O)(=O)c2ccccc2)cc1", "note": "[I-950, N-(3-(2-oxopyrrolidin-1-yl)phenyl)-4-(phenylsulfonamido)benzamide]", "% Inhibition of Apyrase": 39}
{"smiles": "Cc1ccc(NC(=O)c2ccc(NS(=O)(=O)c3ccc(F)cc3)cc2)c(C)c1", "note": "[I-951, N-(2,4-dimethylphenyl)-4-((4-fluorophenyl)sulfonamido)benzamide]", "% Inhibition of Apyrase": 38}
{"smiles": "O=C(Nc1ccc(OC(F)F)cc1)c1ccc(NS(=O)(=O)c2ccccc2)cc1", "note": "[I-952, N-(4-(difluoromethoxy)phenyl)-4-(phenylsulfonamido)benzamide]", "% Inhibition of Apyrase": 36}
{"smiles": "O=C(Nc1ccc2c(c1)OCO2)c1ccc(NS(=O)(=O)c2cccc(F)c2)cc1", "note": "[I-953, N-(benzo[d][1,3]dioxol-5-yl)-4-((3-fluorophenyl)sulfonamido)benzamide]", "% Inhibition of Apyrase": 26}
{"smiles": "Cc1ccc(C)c(S(=O)(=O)Nc2ccc(C(=O)Nc3cccc(C#N)c3)cc2)c1", "note": "[I-954, N-(3-cyanophenyl)-4-((2,5-dimethylphenyl)sulfonamido)benzamide]", "% Inhibition of Apyrase": 25}
{"smiles": "Cc1ccc(F)c(NC(=O)c2ccc(NS(=O)(=O)c3ccccc3)cc2)c1", "note": "[I-955, N-(2-fluoro-5-methylphenyl)-4-(phenylsulfonamido)benzamide]", "% Inhibition of Apyrase": 23}
{"smiles": "COc1ccc(NC(=O)c2ccc(NS(=O)(=O)c3ccc(Cl)cc3F)cc2)cc1", "note": "[I-956, 4-((4-chloro-2-fluorophenyl)sulfonamido)-N-(4-methoxyphenyl)benzamide]", "% Inhibition of Apyrase": 22}
{"smiles": "N#Cc1cccc(NC(=O)c2ccc(NS(=O)(=O)c3ccc(F)cc3)cc2)c1", "note": "[I-957, N-(3-cyanophenyl)-4-((4-fluorophenyl)sulfonamido)benzamide]", "% Inhibition of Apyrase": 20}
{"smiles": "COc1ccc(NC(=O)c2ccc(NS(=O)(=O)c3ccc(F)cc3)cc2)cc1OC", "note": "[I-958, N-(3,4-dimethoxyphenyl)-4-((4-fluorophenyl)sulfonamido)benzamide]", "% Inhibition of Apyrase": 19}
{"smiles": "Cc1cc(F)ccc1S(=O)(=O)Nc1ccc(C(=O)Nc2cccc(C#N)c2)cc1", "note": "[I-959, N-(3-cyanophenyl)-4-((4-fluoro-2-methylphenyl)sulfonamido)benzamide]", "% Inhibition of Apyrase": 17}
{"smiles": "O=C(Nc1ccccc1OC(F)F)c1ccc(NS(=O)(=O)c2ccccc2)cc1", "note": "[I-960, N-(2-(difluoromethoxy)phenyl)-4-(phenylsulfonamido)benzamide]", "% Inhibition of Apyrase": 14}
{"smiles": "NS(=O)(=O)c1ccc(NC(=O)c2ccc(NS(=O)(=O)c3ccc(F)c(Cl)c3)cc2)cc1", "note": "[I-961, 4-((3-chloro-4-fluorophenyl)sulfonamido)-N-(4-sulfamoylphenyl)benzamide]", "% Inhibition of Apyrase": 14}
{"smiles": "N#Cc1cccc(NC(=O)c2ccc(NS(=O)(=O)c3ccc4c(c3)OCCO4)cc2)c1", "note": "[I-962, N-(3-cyanophenyl)-4-((2,3-dihydrobenzo[b][1,4]dioxine)-6-sulfonamido)benzamide]", "% Inhibition of Apyrase": 11}
{"smiles": "CC(=O)Nc1ccc(NC(=O)c2ccc(NS(=O)(=O)c3ccc(Br)cc3)cc2)cc1", "note": "[I-963, N-(4-acetamidophenyl)-4-((4-bromophenyl)sulfonamido)benzamide]", "% Inhibition of Apyrase": 10}
{"smiles": "O=C(c1ccc(NS(=O)(=O)c2cc(Cl)ccc2Cl)cc1)N1CCc2ccccc21", "note": "[I-964, 2,5-dichloro-N-(4-(indoline-1-carbonyl)phenyl)benzenesulfonamide]", "% Inhibition of Apyrase": 10}
{"smiles": "O=C(c1ccc(NS(=O)(=O)c2ccc(F)cc2)cc1)N1CCc2ccccc21", "note": "[I-965, 4-fluoro-N-(4-(indoline-1-carbonyl)phenyl)benzenesulfonamide]", "% Inhibition of Apyrase": 3}
{"smiles": "O=C(Nc1ccc(S(=O)(=O)Nc2ccccc2Cl)cc1)c1ccc(C(F)(F)F)cc1", "note": "[I-971, N-(4-(N-(2-chlorophenyl)sulfamoyl)phenyl)-4-(trifluoromethyl)benzamide]", "% Inhibition of Apyrase": 67}
{"smiles": "O=C(Nc1ccc(S(=O)(=O)Nc2ccc(F)c(Cl)c2)cc1)c1cccc([N+](=O)[O-])c1", "note": "[I-972, N-(4-(N-(3-chloro-4-fluorophenyl)sulfamoyl)phenyl)-3-nitrobenzamide]", "% Inhibition of Apyrase": 66}
{"smiles": "COc1cccc(C(=O)Nc2ccc(S(=O)(=O)Nc3ccccc3OC)cc2)c1", "note": "[I-973, 3-methoxy-N-(4-(N-(2-methoxyphenyl)sulfamoyl)phenyl)benzamide]", "% Inhibition of Apyrase": 63}
{"smiles": "Cc1ccc(C(=O)Nc2ccc(S(=O)(=O)Nc3ccc(F)cc3)cc2)cc1Br", "note": "[I-974, 3-bromo-N-(4-(N-(4-fluorophenyl)sulfamoyl)phenyl)-4-methylbenzamide]", "% Inhibition of Apyrase": 63}
{"smiles": "O=C(Nc1ccc(S(=O)(=O)Nc2cccc(C(F)(F)F)c2)cc1)c1cc([N+](=O)[O-])cc([N+](=O)[O-])c1", "note": "[I-975, 3,5-dinitro-N-(4-(N-(3-(trifluoromethyl)phenyl)sulfamoyl)phenyl) benzamide]", "% Inhibition of Apyrase": 62}
{"smiles": "O=C(Nc1ccc(S(=O)(=O)Nc2ccc(Cl)cc2)cc1)c1cccc(C(F)(F)F)c1", "note": "[I-976, N-(4-(N-(4-chlorophenyl)sulfamoyl)phenyl)-3-(trifluoromethyl)benzamide]", "% Inhibition of Apyrase": 60}
{"smiles": "O=C(Nc1ccc(S(=O)(=O)Nc2cccc(C(F)(F)F)c2)cc1)c1ccc(F)cc1Cl", "note": "[I-977, 2-chloro-4-fluoro-N-(4-(N-(3-(trifluoromethyl)phenyl)sulfamoyl)phenyl) benzamide]", "% Inhibition of Apyrase": 59}
{"smiles": "COc1ccccc1C(=O)Nc1ccc(S(=O)(=O)Nc2ccc(Cl)cc2)cc1", "note": "[I-978, N-(4-(N-(4-chlorophenyl)sulfamoyl)phenyl)-2-methoxybenzamide]", "% Inhibition of Apyrase": 59}
{"smiles": "O=C(Nc1ccc(S(=O)(=O)Nc2cccc(C(F)(F)F)c2)cc1)c1ccc(Cl)c([N+](=O)[O-])c1", "note": "[I-979, 4-chloro-3-nitro-N-(4-(N-(3-(trifluoromethyl)phenyl)sulfamoyl)phenyl) benzamide]", "% Inhibition of Apyrase": 58}
{"smiles": "O=C(Nc1ccc(S(=O)(=O)N2CCc3ccccc32)cc1)c1cccc([N+](=O)[O-])c1", "note": "[I-980, N-(4-(indolin-1-ylsulfonyl)phenyl)-3-nitrobenzamide]", "% Inhibition of Apyrase": 58}
{"smiles": "COc1ccccc1NS(=O)(=O)c1ccc(NC(=O)c2ccc3c(c2)OCCO3)cc1", "note": "[I-981, N-(4-(N-(2-methoxyphenyl)sulfamoyl)phenyl)-2,3-dihydrobenzo[b][1,4]dioxine-6-carboxamide]", "% Inhibition of Apyrase": 57}
{"smiles": "O=C(Nc1ccc(S(=O)(=O)Nc2ccccc2Cl)cc1)c1ccc(Cl)c(Cl)c1", "note": "[I-982, 3,4-dichloro-N-(4-(N-(2-chlorophenyl)sulfamoyl)phenyl)benzamide]", "% Inhibition of Apyrase": 57}
{"smiles": "COc1ccccc1NS(=O)(=O)c1ccc(NC(=O)c2ccccc2SCC2CCCO2)cc1", "note": "(stereo not drawn) [I-985, N-(4-(N-(2-methoxyphenyl)sulfamoyl)phenyl)-2-(((tetrahydrofuran-2-yl)methyl)thio)benzamide]", "% Inhibition of Apyrase": 57}
{"smiles": "CCOc1ccc(NS(=O)(=O)c2ccc(NC(=O)c3cccc(OC(F)F)c3)cc2)cc1", "note": "[I-986, 3-(difluoromethoxy)-N-(4-(N-(4-ethoxyphenyl)sulfamoyl)phenyl)benzamide]", "% Inhibition of Apyrase": 56}
{"smiles": "NS(=O)(=O)c1cc(C(=O)Nc2ccc(S(=O)(=O)Nc3ccc(Cl)cc3)cc2)ccc1Cl", "note": "[I-987, 4-chloro-N-(4-(N-(4-chlorophenyl)sulfamoyl)phenyl)-3-sulfamoylbenzamide]", "% Inhibition of Apyrase": 55}
{"smiles": "COc1ccc(C(=O)Nc2ccc(S(=O)(=O)Nc3ccc(Cl)cc3)cc2)cc1", "note": "[I-988, N-(4-(N-(4-chlorophenyl)sulfamoyl)phenyl)-4-methoxybenzamide]", "% Inhibition of Apyrase": 55}
{"smiles": "Cc1ccc(NS(=O)(=O)c2ccc(NC(=O)c3cccc(S(C)(=O)=O)c3)cc2)cc1C", "note": "[I-989, N-(4-(N-(3,4-dimethylphenyl)sulfamoyl)phenyl)-3-(methylsulfonyl)benzamide]", "% Inhibition of Apyrase": 54}
{"smiles": "O=C(Nc1ccc(S(=O)(=O)Nc2cccc(Cl)c2)cc1)c1ccc(F)cc1", "note": "[I-990, N-(4-(N-(3-chlorophenyl)sulfamoyl)phenyl)-4-fluorobenzamide]", "% Inhibition of Apyrase": 53}
{"smiles": "COc1ccc(NS(=O)(=O)c2ccc(NC(=O)c3cccc(S(=O)(=O)N(C)C)c3)cc2)cc1", "note": "[I-991, 3-(N,N-dimethylsulfamoyl)-N-(4-(N-(4-methoxyphenyl)sulfamoyl)phenyl)benzamide]", "% Inhibition of Apyrase": 53}
{"smiles": "COc1ccc(NS(=O)(=O)c2ccc(NC(=O)c3cc(Cl)cc(Cl)c3)cc2)cc1", "note": "[I-992, 3,5-dichloro-N-(4-(N-(4-methoxyphenyl)sulfamoyl)phenyl)benzamide]", "% Inhibition of Apyrase": 49}
{"smiles": "COc1ccccc1NS(=O)(=O)c1ccc(NC(=O)c2cccc([N+](=O)[O-])c2)cc1", "note": "[I-993, N-(4-(N-(2-methoxyphenyl)sulfamoyl)phenyl)-3-nitrobenzamide]", "% Inhibition of Apyrase": 48}
